From EP1183044B1, “ADJUVANT COMBINATIONS FOR IMMUNIZATION AND VACCINES” (priority 1999, dated 2000)

Tested on: IFN-γ
Type: in vivo, C57BL/6 mice
Conditions: 72 h supernatant of blood cell cultures one week after last booster; ESAT-6 10 µg/dose, three vaccinations

CCCCCCCCCCCCCCCCCC[N+](C)(C)CCCCCCCCCCCCCCCCCC.[Br-] [DDA, dimethyl dioctadecyl ammonium bromide]
ESAT-6 specific recall response, IFN-γ, Expt.I: <50 pg/mL
